Laboratory results as given in patent US20120035206A1, “PREPARATION AND APPLICATION OF NOVEL ANTIBACTERIAL AND ANTICANCER COMPOUNDS AND THEIR DERIVATIVES” (priority 2009, published 2012).
≈ marks a conversion by molar mass, not a printed value.

Legend:
Format in all cases: cell-based
[1] = test system: A. niger; experiment: In vitro antibacterial (antifungal) test, two-fold dilution MIC; conditions: Aspergillus niger, RPMI 1640, culture 2-7 days
[2] = test system: C. Krusei; experiment: as above; conditions: Pichia kudriavzevii, RPMI 1640, culture 2-7 days
[3] = test system: C. albicans; experiment: as above; conditions: Candida albicans, read-out: MIC C. albicas
[4] = test system: C. glabrata; experiment: as above; conditions: Nakaseomyces glabratus, RPMI 1640, culture 2-7 days
[5] = test system: C. neoformans; experiment: as above; conditions: Cryptococcus neoformans, RPMI 1640, culture 2-7 days
[6] = test system: C. parapsilosis; experiment: as above; conditions: Lodderomyces parapsilosis, RPMI 1640, culture 2-7 days
[7] = test system: C. tropicalis; experiment: as above; conditions: Candida tropicalis, RPMI 1640, culture 2-7 days
[8] = test system: E. floccosum; experiment: as above; conditions: Epidermophyton floccosum, RPMI 1640, culture 2-7 days
[9] = test system: M. gypseum; experiment: as above; conditions: Nannizzia gypsea, RPMI 1640, culture 2-7 days
[10] = test system: S. schenekn; experiment: as above; conditions: RPMI 1640, culture 2-7 days
[11] = test system: Fusarium oxysporum vasinfectum; experiment: as above; conditions: RPMI 1640, culture 2-7 days
[12] = test system: Setosphaeria turcica; experiment: as above; conditions: Exserohilum turcicum, RPMI 1640, culture 2-7 days
[13] = test system: Terchoderma; experiment: as above; conditions: Trichoderma, RPMI 1640, culture 2-7 days
[14] = test system: gibberella; experiment: as above; conditions: RPMI 1640, culture 2-7 days
[15] = test system: A375; experiment: In vitro anticancer MTT experiment; conditions: Homo sapiens, A-375, concentration 5 ug/ml, 48 h or 72 h, read-out: inhibition ratio A375
Procedure, shortened: (§1)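 Cells in RPMI 1640 with 10% fetal calf serum were seeded at 6000-7000 per well, rested 12 h at 37° C., then exposed to compound for 48 h or 72 h. MTT was read as OD at 570 nm. Inhibition ratio was derived against untreated and blank wells, with reported values taken at 5 ug/ml.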

[16] = test system: AS24391; experiment: In vitro anticancer MTT experiment; conditions: concentration 5 ug/ml, 48 h or 72 h, read-out: inhibition ratio AS24391
Procedure, shortened: as §1

[17] = test system: B01092; experiment: In vitro anticancer MTT experiment; conditions: concentration 5 ug/ml, 48 h or 72 h, read-out: inhibition ratio B01092
Procedure, shortened: as §1

[18] = test system: CRL-1435PC-3; experiment: In vitro anticancer MTT experiment; conditions: concentration 5 ug/ml, 48 h or 72 h, read-out: inhibition ratio CRL-1435PC-3
Procedure, shortened: as §1

[19] = test system: CRL-1469PANC-1; experiment: In vitro anticancer MTT experiment; conditions: concentration 5 ug/ml, 48 h or 72 h, read-out: inhibition ratio CRL-1469PANC-1
Procedure, shortened: as §1

[20] = test system: CRL-2233SNU-398; experiment: In vitro anticancer MTT experiment; conditions: concentration 5 ug/ml, 48 h or 72 h, read-out: inhibition ratio CRL-2233SNU-398
Procedure, shortened: as §1

[21] = test system: FTC 133; experiment: In vitro anticancer MTT experiment; conditions: Homo sapiens, concentration 5 ug/ml, 48 h or 72 h, read-out: inhibition ratio FTC 133
Procedure, shortened: as §1

[22] = test system: HTB-131MDA-MB-453; experiment: In vitro anticancer MTT experiment; conditions: concentration 5 ug/ml, 48 h or 72 h, read-out: inhibition ratio HTB-131MDA-MB-453
Procedure, shortened: as §1

[23] = test system: HTB-38HT-29; experiment: In vitro anticancer MTT experiment; conditions: concentration 5 ug/ml, 48 h or 72 h, read-out: inhibition ratio HTB-38HT-29
Procedure, shortened: as §1

[24] = test system: HTB-94; experiment: In vitro anticancer MTT experiment; conditions: concentration 5 ug/ml, 48 h or 72 h, read-out: inhibition ratio HTB-94
Procedure, shortened: as §1

[25] = test system: HTB-95637; experiment: In vitro anticancer MTT experiment; conditions: concentration 5 ug/ml, 48 h or 72 h, read-out: inhibition ratio HTB-95637
Procedure, shortened: as §1

[26] = test system: L1210; experiment: In vitro anticancer MTT experiment; conditions: Mus musculus, concentration 5 ug/ml, 48 h or 72 h, read-out: inhibition ratio L1210
Procedure, shortened: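 Reported inhibition ratio refers to 5 ug/ml compound, calculated from OD 570 nm against untreated-cell and medium-only references. MTT readout followed 48 h or 72 h drug exposure at 37° C., 5% CO2. Log-phase cells were plated at 6000-7000 per well in RPMI 1640 with 10% FCS.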

[27] = test system: SGC7901; experiment: In vitro anticancer MTT experiment; conditions: Homo sapiens, SGC-7901, concentration 5 ug/ml, 48 h or 72 h, read-out: inhibition ratio SGC7901
Procedure, shortened: as §1

[28] = test system: L428; experiment: In vitro anticancer MTT experiment; conditions: Homo sapiens, L-428, concentration 5 ug/ml, 48 h or 72 h, read-out: inhibition ratio L428
Procedure, shortened: as §1

Row | Structure (SMILES) | MIC [2] [µg/mL] | MIC [3] [µg/mL] | MIC [4] [µg/mL] | MIC [5] [µg/mL] | MIC [6] [µg/mL] | MIC [7] [µg/mL] | MIC [8] [µg/mL] | MIC [9] [µg/mL] | MIC [10] [µg/mL] | MIC [12] [µg/mL] | MIC [14] [µg/mL] | inhibition at 5 µg/mL [15] [%] | inhibition at 5 µg/mL [16] [%] | inhibition at 5 µg/mL [17] [%] | inhibition at 5 µg/mL [19] [%] | inhibition at 5 µg/mL [22] [%] | inhibition at 5 µg/mL [23] [%] | inhibition at 5 µg/mL [25] [%] | inhibition at 5 µg/mL [26] [%] | inhibition at 5 µg/mL [27] [%] | also measured
1 | Cc1ccc2c(c1)C(=O)CCS2 [Compound 1] | 32 (≈ 180 µM) | 64 (≈ 359 µM) | 64 (≈ 359 µM) | 64 (≈ 359 µM) | 64 (≈ 359 µM) | 32 (≈ 180 µM) | 32 (≈ 180 µM) | 64 (≈ 359 µM) | 32 (≈ 180 µM) | – | – | – | – | – | – | – | – | – | – | – | MIC [1]: 32 µg/mL (≈ 180 µM)
2 | Cc1ccc2c(c1)C(=O)/C(=C\O)CS2 [Compound 2] | 32 (≈ 155 µM) | 32 (≈ 155 µM) | 32 (≈ 155 µM) | 32 (≈ 155 µM) | 64 (≈ 310 µM) | 32 (≈ 155 µM) | 32 (≈ 155 µM) | 32 (≈ 155 µM) | 16 (≈ 77.6 µM) | – | – | – | – | – | – | – | – | – | – | – | MIC [1]: 64 µg/mL (≈ 310 µM)
3 | Cc1cc2c(cc1F)SC/C(=C\Cl)C2=O [Compound 6, (Z)-3-(chloromethylene)-7-fluoro-6-methylthiochroman-4-one] | 8 (≈ 33 µM) | 32 (≈ 132 µM) | 8 (≈ 33 µM) | 4 (≈ 16.5 µM) | 4 (≈ 16.5 µM) | 16 (≈ 65.9 µM) | 32 (≈ 132 µM) | 4 (≈ 16.5 µM) | 16 (≈ 65.9 µM) | 4 (≈ 16.5 µM) | 8 (≈ 33 µM) | 65.8 | 59.8 | 57.9 | 53.8 | 60.7 | 44.2 | 48 | 76.9 | 45.3 | MIC [11]: 16 µg/mL (≈ 65.9 µM); MIC [13]: 16 µg/mL (≈ 65.9 µM); inhibition at 5 µg/mL [18]: 56.7%; inhibition at 5 µg/mL [20]: 60.1%; inhibition at 5 µg/mL [21]: 59.3%; inhibition at 5 µg/mL [24]: 45.4%
4 | O=C1/C(=C/Br)CSc2ccc(Cl)cc21 [Compound 10, (Z)-3-(bromomethylene)-6-chlorothiochroman-4-one] | 16 (≈ 55.3 µM) | 64 (≈ 221 µM) | 64 (≈ 221 µM) | 4 (≈ 13.8 µM) | 8 (≈ 27.6 µM) | 32 (≈ 111 µM) | 64 (≈ 221 µM) | 64 (≈ 221 µM) | 64 (≈ 221 µM) | 32 (≈ 111 µM) | 32 (≈ 111 µM) | – | 56.7 | 69 | 45.1 | 53.5 | 54.7 | 40.8 | 84.4 | 56.5 | MIC [11]: 64 µg/mL (≈ 221 µM); MIC [13]: 16 µg/mL (≈ 55.3 µM); inhibition at 5 µg/mL [18]: 46.6%; inhibition at 5 µg/mL [20]: 45.6%; inhibition at 5 µg/mL [21]: 45.6%; inhibition at 5 µg/mL [24]: 46.8%; inhibition at 5 µg/mL [28]: 50.6%
5 | O=C1/C(=C/Br)CSc2ccc(F)cc21 [Compound 11, (Z)-3-(bromomethylene)-6-fluorothiochroman-4-one] | 16 (≈ 58.6 µM) | 64 (≈ 234 µM) | 8 (≈ 29.3 µM) | 32 (≈ 117 µM) | 32 (≈ 117 µM) | 64 (≈ 234 µM) | 32 (≈ 117 µM) | 64 (≈ 234 µM) | 32 (≈ 117 µM) | 32 (≈ 117 µM) | 16 (≈ 58.6 µM) | 47 | 46.9 | 45.5 | 39.4 | 45.6 | 45.5 | 49.5 | 86 | 59 | MIC [11]: 32 µg/mL (≈ 117 µM); MIC [13]: 16 µg/mL (≈ 58.6 µM); inhibition at 5 µg/mL [18]: 47.9%; inhibition at 5 µg/mL [20]: 60.1%; inhibition at 5 µg/mL [21]: 56.7%; inhibition at 5 µg/mL [24]: 36.7%; inhibition at 5 µg/mL [28]: 50.3%
6 | Cc1ccc2c(c1)C(=O)CSC2 [Compound 13] | – | 64 (≈ 359 µM) | 64 (≈ 359 µM) | 64 (≈ 359 µM) | 32 (≈ 180 µM) | 16 (≈ 89.8 µM) | 32 (≈ 180 µM) | 16 (≈ 89.8 µM) | 64 (≈ 359 µM) | – | – | 74.3 | 45.1 | 43.8 | 62.7 | 65.5 | 57.3 | 56.6 | 85.6 | 50.6 | MIC [1]: 32 µg/mL (≈ 180 µM); inhibition at 5 µg/mL [21]: 57.8%; inhibition at 5 µg/mL [24]: 45.6%; inhibition at 5 µg/mL [28]: 37.5%
7 | OC1/C(=C/Cl)SCc2ccccc21 (centres unmarked) [Compound 20, (Z)-3-(chloromethylene)isothiochroman-4-ol] | 32 (≈ 150 µM) | 16 (≈ 75.2 µM) | 8 (≈ 37.6 µM) | 16 (≈ 75.2 µM) | 8 (≈ 37.6 µM) | 32 (≈ 150 µM) | 16 (≈ 75.2 µM) | 16 (≈ 75.2 µM) | 32 (≈ 150 µM) | 8 (≈ 37.6 µM) | 16 (≈ 75.2 µM) | 50.2 | 49.8 | 46.9 | 34.5 | 25.8 | 45.5 | 56.2 | 80.3 | 45.9 | inhibition at 5 µg/mL [18]: 45.5%; inhibition at 5 µg/mL [20]: 40.4%; inhibition at 5 µg/mL [21]: 36.9%; inhibition at 5 µg/mL [24]: 45.7%; inhibition at 5 µg/mL [28]: 43.3%
8 | O=C1/C(=C\Cl)CSc2ccc(Cl)cc21 [Compound 21, (E)-6-chloro-3-(chloromethylene)thiochroman-4-one] | 8 (≈ 32.6 µM) | 8 (≈ 32.6 µM) | 8 (≈ 32.6 µM) | 4 (≈ 16.3 µM) | 8 (≈ 32.6 µM) | 16 (≈ 65.3 µM) | 16 (≈ 65.3 µM) | 32 (≈ 131 µM) | 16 (≈ 65.3 µM) | 32 (≈ 131 µM) | 8 (≈ 32.6 µM) | 56.9 | 60.3 | 35.9 | 63 | 55.6 | 54.3 | 54.3 | 78.4 | 50 | MIC [11]: 32 µg/mL (≈ 131 µM); MIC [13]: 4 µg/mL (≈ 16.3 µM); inhibition at 5 µg/mL [18]: 54.6%; inhibition at 5 µg/mL [20]: 46.7%; inhibition at 5 µg/mL [21]: 55.9%; inhibition at 5 µg/mL [28]: 52.3%
9 | O=C1/C(=C\Cl)CSc2ccc(F)cc21 [Compound 22, (E)-3-(chloromethylene)-6-fluorothiochroman-4-one] | 16 (≈ 70 µM) | 4 (≈ 17.5 µM) | 8 (≈ 35 µM) | 16 (≈ 70 µM) | 16 (≈ 70 µM) | 32 (≈ 140 µM) | 16 (≈ 70 µM) | 16 (≈ 70 µM) | 8 (≈ 35 µM) | 8 (≈ 35 µM) | 4 (≈ 17.5 µM) | 56.7 | 43.5 | 43.6 | 33.3 | 55.9 | 47.8 | 36.9 | 86.7 | 60.7 | MIC [11]: 16 µg/mL (≈ 70 µM); MIC [13]: 32 µg/mL (≈ 140 µM); inhibition at 5 µg/mL [18]: 30.5%; inhibition at 5 µg/mL [20]: 49%; inhibition at 5 µg/mL [24]: 51%; inhibition at 5 µg/mL [28]: 53.9%
